{"source": "patent US8852584B2", "about": "“Bactericide having selectivity to cariogenic bacterium, and a method for sterilization of cariogenic bacterium” (Two Cells Co., Ltd., priority 2005, dated 2014)", "molecules": {"B1": {"name": "automutanolysin (protein)", "chain": "MKSKTYLMIPLALTLFMAANKISADEQNQSLSASEVISSDATSVSELPATTAQISQEVRNNGQDSTIQLQQTQEQSDPITSTSETTVSSMKAATNGSPAKANETETVPSQASTASSVQTPDQILTVPSVKAETTSTADQLQSTSSAPLDQQTDAKRLSNKMTPASSVQARSSLTQDKQVQAQEVTSAVVEEKGIKLQYNGQIARNTKIQFAVWSARNDQDDLQWYTANNMGAAYAEFKNHREYGTYYVHTYANQNGKMIGLNATTLTIAQPQVQTNIQRKSATNFELTVSNVPNTISGIMVPVWSDQNGQDDIKWYNARKADDGSYKVLIDTKNHKNDLGHYEAHIYGYSTVTQSQIGLAVSSGFDRNDTRPNARISVANYDQNKTTFDVVVEGSSDTKTVSAVNIAVWSEDKGQDDLKWYSPKIVDNKATVTINIANHSNTSDKYNVHVYTDYTDGTHSGTILGAYQINKPLEKNTVSADLTSDGIALKLDSNTVTDYTKVRFAVWSDQNGQDDLKWYSANSDGTATAAYSNHSGYGLYHIHTYIIKDGKMVGLNGKTITINQPSAKVDIAKESDALYKVTVSNLPAYISSVVIPVWTDKNNQDDIQWIPATKQGDGTYAAQIQLADHNGETGHYNVHVYGQSKFDNKAVGLAATDGFNVAETRNAVIAASNYNASAGTIDMIVKQEAGGKAIKEVRIAAWSEADQSNLHWYVSSTIIDGKVTVTINEKNHQYIKGNYNIHVYVDYTDGTSSGTNIGNYSLNADKPAVALPSYFIDISSHNGIISVAEFNSLKQQGIQGVVVKLTEGTSYINPYASSQIANARAAGIKVSAYHYAHYTSAAGAQEEARYFANAARSFGLEASTVMVNDMEESSMVNNINNNVQAWQDEMRRQGYSNLIHYTMASWLDIRGGQVDTARFGINNFWVAHYAKGYTYMTQEEAKSLNYYANAAAWQYTSVSSKLSHALDENIDYTGRFTQQ", "modifications": "Streptococcus mutans", "notes": "bacterial cell wall lytic enzyme from Streptococcus mutans specific to cariogenic bacterium"}}, "key": {"S. mutans PMZ175": {"system": "S. mutans PMZ175", "assay": "bacteriolytic effect, decrease in turbidity with time, various surfactants added to Aml", "assay_type": "cell-based, Streptococcus mutans", "settings": "Table 3", "description": "(§1) The method for measuring the bacteriolytic effect adopted in the present invention is as follows.\n(§2) The bacterial strain to be measured its bacteriolytic effect was cultivated overnight, it was washed by physiological saline then suspended into 0.1M phosphate buffer (pH 6.8) containing 0.1M NaCl and 0.1 mM CaCl2. The cell body was treated by ultrasonic generator to disperse the cell body. Thereafter, 500 μg/ml Aml solution dissolved into 30% ethyleneglycol-0.1M sodium phosphate buffer (pH 6.3) and 5 mg/ml surfactant dissolved into distilled water (40 μl) were added into a system consisting of 1 ml of bacterial suspension. 0.1M phosphate buffer solution and 0.1 mM calcium. It was incubated at 37° C., then the turbidity was measured with time, and the bacteriolytic effect was evaluated using the rate of decrease in turbidity as an index.\nUsing S. mutans PMZ175 (a cariogenic bacterium), the bacteriolytic effect was investigated using experimental systems in which various surfactants were added to Aml (FIG. 3, Table 3). Meanwhile, the food additives investigated in this experiment were glycyrrhizin (0.5%), saponin from quillaya (0.5%), S1670 (0.1%), S1570 (0.05%), P1670 (0.05%), saponin from soybean (0.05%), saponin from yucca (0.05%), and Triton X (0.05%)."}, "Streptcoccus mutans 403R": {"system": "Streptcoccus mutans 403R", "assay": "bacteriolytic effect, decrease in turbidity with time", "assay_type": "cell-based, Streptococcus mutans", "settings": "for percentage of turbidity (beginning = 100%): Table 1, Aml alone or Aml + 0.05% surfactant", "description": "as §1, §2\nUsing Streptcoccus mutans 403R (dental caries causing bacterium), the bacteriolytic effect was measured with time using an experimental system of Aml alone, and an experimental system of Aml added with P1670 or S1570 at the concentration of 0.05% (Table 1, FIG. 1). In table 1 and FIG. 1, the turbidity of the bacterial solution at the beginning of the experiment was indicated as 100%, and the bacteriolytic effect was represented by the percentage of turbidity at each time point. […] By the way, the control indicates a system in which only a cariogenic bacterium was cultivated.\nUsing Streptcoccus mutans 403R, the bacteriolytic effect was measured with time on systems in which P1670 or S1570 was added into Aml at various final concentrations (0.05%, 0.025%, 0.001%) (Table 2, FIG. 2)."}}, "data": [{"molecule": "CC1(C)[C@@H](O[C@H]2O[C@H](C(=O)O)[C@@H](O)[C@H](O)[C@H]2O[C@@H]2O[C@H](C(=O)O)[C@@H](O)[C@H](O)[C@H]2O)CC[C@]2(C)[C@H]3C(=O)C=C4[C@@H]5C[C@@](C)(C(=O)O)CC[C@]5(C)CC[C@@]4(C)[C@]3(C)CC[C@@H]12", "note": "[Glycyrrhizin, glycyrrhizin]", "values": [{"measurement": "percentage of turbidity (beginning = 100%)", "setting": "S. mutans PMZ175; Aml + 0.5% surfactant, Time 0", "result": 100.0, "unit": "%"}, {"measurement": "percentage of turbidity (beginning = 100%)", "setting": "S. mutans PMZ175; Aml + 0.5% surfactant, Time 0.25", "result": 96.6, "unit": "%"}, {"measurement": "percentage of turbidity (beginning = 100%)", "setting": "S. mutans PMZ175; Aml + 0.5% surfactant, Time 0.5", "result": 93.6, "unit": "%"}, {"measurement": "percentage of turbidity (beginning = 100%)", "setting": "S. mutans PMZ175; Aml + 0.5% surfactant, Time 1", "result": 89.0, "unit": "%"}, {"measurement": "percentage of turbidity (beginning = 100%)", "setting": "S. mutans PMZ175; Aml + 0.5% surfactant, Time 1.5", "result": 81.3, "unit": "%"}, {"measurement": "percentage of turbidity (beginning = 100%)", "setting": "S. mutans PMZ175; Aml + 0.5% surfactant, Time 2.5", "result": 83.7, "unit": "%"}, {"measurement": "percentage of turbidity (beginning = 100%)", "setting": "S. mutans PMZ175; Aml + 0.5% surfactant, Time 3", "result": 80.3, "unit": "%"}, {"measurement": "percentage of turbidity (beginning = 100%)", "setting": "S. mutans PMZ175; Aml + 0.5% surfactant, Time 3.5", "result": 82.3, "unit": "%"}, {"measurement": "percentage of turbidity (beginning = 100%)", "setting": "S. mutans PMZ175; Aml + 0.5% surfactant, Time 4", "result": 77.4, "unit": "%"}]}, {"molecule": "CC(C)(C)CC(C)(C)c1ccc(OCCO)cc1", "note": "[Triton, Triton X]", "values": [{"measurement": "percentage of turbidity (beginning = 100%)", "setting": "S. mutans PMZ175; Aml + 0.05% surfactant, Time 0", "result": 100.0, "unit": "%"}, {"measurement": "percentage of turbidity (beginning = 100%)", "setting": "S. mutans PMZ175; Aml + 0.05% surfactant, Time 0.25", "result": 93.8, "unit": "%"}, {"measurement": "percentage of turbidity (beginning = 100%)", "setting": "S. mutans PMZ175; Aml + 0.05% surfactant, Time 0.5", "result": 68.6, "unit": "%"}, {"measurement": "percentage of turbidity (beginning = 100%)", "setting": "S. mutans PMZ175; Aml + 0.05% surfactant, Time 1", "result": 10.3, "unit": "%"}, {"measurement": "percentage of turbidity (beginning = 100%)", "setting": "S. mutans PMZ175; Aml + 0.05% surfactant, Time 1.5", "result": "−3.4", "unit": "%"}, {"measurement": "percentage of turbidity (beginning = 100%)", "setting": "S. mutans PMZ175; Aml + 0.05% surfactant, Time 2.5", "result": "−6.6", "unit": "%"}, {"measurement": "percentage of turbidity (beginning = 100%)", "setting": "S. mutans PMZ175; Aml + 0.05% surfactant, Time 3", "result": "−7.1", "unit": "%"}, {"measurement": "percentage of turbidity (beginning = 100%)", "setting": "S. mutans PMZ175; Aml + 0.05% surfactant, Time 3.5", "result": "−7.7", "unit": "%"}, {"measurement": "percentage of turbidity (beginning = 100%)", "setting": "S. mutans PMZ175; Aml + 0.05% surfactant, Time 4", "result": "−8.8", "unit": "%"}]}, {"molecule": "B1", "values": [{"measurement": "percentage of turbidity (beginning = 100%)", "setting": "Streptcoccus mutans 403R; Time 0", "result": 100.0, "unit": "%"}, {"measurement": "percentage of turbidity (beginning = 100%)", "setting": "Streptcoccus mutans 403R; Time 0.25", "result": 93.3, "unit": "%"}, {"measurement": "percentage of turbidity (beginning = 100%)", "setting": "Streptcoccus mutans 403R; Time 0.5", "result": 81.5, "unit": "%"}, {"measurement": "percentage of turbidity (beginning = 100%)", "setting": "Streptcoccus mutans 403R; Time 1", "result": 62.6, "unit": "%"}, {"measurement": "percentage of turbidity (beginning = 100%)", "setting": "Streptcoccus mutans 403R; Time 1.5", "result": 50.8, "unit": "%"}, {"measurement": "percentage of turbidity (beginning = 100%)", "setting": "Streptcoccus mutans 403R; Time 2", "result": 42.2, "unit": "%"}, {"measurement": "percentage of turbidity (beginning = 100%)", "setting": "Streptcoccus mutans 403R; Time 4", "result": 24.6, "unit": "%"}, {"measurement": "time required for the bacteriolysis of 50% of living bacterium (ED50)", "setting": "Streptcoccus mutans 403R; summary, Aml alone", "result": 1.5, "unit": "h"}]}]}
